Reference: US10183011B2, “Anti-depression compounds” (Board of Regents of the University of Texas System, priority 2009, dated 2019)
Values joined by “and” are separate entries in the source; they are usually repeats but may differ in a detail not shown here. Equal entries are not always repeated. Where two headings read alike, the source gives them in different places.

What was measured:
[1] = Pharmacokinetic analysis in plasma and whole brain tissue; assay type: in vivo, mouse; settings: for concentration at 5 h: brain, five hours after dosing, read-out: brain level
Text: Pharmacokinetic analysis of Example 45 Compound in plasma and whole brain tissue was undertaken after single IV, IP and oral gavage administrations. […] These favorable pharmacological properties facilitated a dose response experiment wherein daily oral administration of Example 45 Compound to adult mice was monitored for both brain levels of the chemical and pro-neurogenic efficacy (FIG. 7).

[2] = test system: hypothalamic neural precursor cells; test: Hypothalamic neurogenesis (BrdU); assay type: in vivo, mouse (C57BL/6); settings: 10 mg/kg twice daily i.p.
Procedure: FIG. 27. Example 45 Compound (P7C3) Augments Hypothalamic Neurogenesis. Administration of P7C3 for a one month period of time augments proliferation of hypothalamic neural precursor cells (shown in red) in the arcuate nucleus (ARC), dorsomedial hypothalamus (DMH) and ventralmedial hypothalamus (VMH). Micrographs shown are representative of staining from every third section throughout the hypothalamus in 4-6 mice for each treatment group.
It was evaluated whether P7C3 might augment hypothalamic neurogenesis by administering either vehicle or P7C3 (10 mg/kg twice daily, i.p.) to nine week old male C57BL/6 mice, starting two days before implantation of 7 day Alzet osmotic minipumps (model 1007d) loaded with BrdU (1 mg/kg). Pumps were connected to a cannula that delivered BrdU at a constant rate into the left lateral ventricle for the seven day period, during which time animals continued to receive either vehicle or P7C3. Pumps were surgically removed at the conclusion of their 7 day operating period, and mice were allowed to survive for 4 more weeks, during which time they continued to receive either vehicle or P7C3. At the end of the 4 week period, mice were deeply anesthetized with intraperitoneal (i.p.) injection of mouse anesthetic cocktail and transcardially perfused with 4% paraformaldehyde (PFA) in phosphate buffered saline (pH 7.4). […]

[3] = test system: newborn cells in the dentate gyrus; test: Chronic social defeat stress (CSDS): DG cellular proliferation (BrdU) and apoptosis (AC3); assay type: in vivo, mouse (Ghsr-null and wild-type)
Text: FIG. 40. Effects of P7C3 on DG cellular proliferation and apoptosis following CSDS. (a) Protocol schematic. (b-e) BrdU-immunoreactive and AC3-immunoreactive cell counts in the dorsal and ventral DG of CSDS-exposed and non-CSDS-exposed mice treated with P7C3 vs. vehicle. Group sizes indicated. (f-k) Representative photomicrograph images of double-immunolabeled (BrdU and AC3) ventral DG sections. (l-q) Magnified images of immunoreactive cells (AC3, leftward-facing arrow; BrdU, rightward-facing arrow). Scale bar in (k; 100 μm) pertains to (f-k), in (q; 25 μm) pertains to (l-q). *P<0.05, **P<0.01, ***P<0.001, as compared to respective non-CSDS-exposed, vehicle-treated control group.
It was next investigated whether protecting neural precursor cells from CSDS-associated apoptosis might help protect against the depressive-like phenotype. To test this idea, P7C3 was utilized, a neuroprotective aminopropyl carbazole that elevates hippocampal neurogenesis by blocking apoptosis without affecting the proliferation rate of hippocampal neural precursor cells in the dentate gyrus. A twice-daily schedule of intraperitoneal P7C3 injections (20 mg/kg/d in divided doses) was initiated two days prior to CSDS and continued throughout the 10 day procedure for both wild-type and Ghsr-null littermates. […]
CSDS was performed similar to methods used previously in the lab (J. C. Chuang et al., Ghrelin mediates stress-induced food-reward behavior in mice. J Clin Invest 121, 2684 (2011)). […] Ethovision 3.0 software (Noldus, Leesburg, Va.) measured the duration spent in the interaction zone or in the corners. […]
Immunohistochemistry and quantification were performed as described previously (J. C. Chuang et al., Ghrelin mediates stress-induced food-reward behavior in mice. J Clin Invest 121, 2684 (2011); J. E. Malberg et al., Chronic antidepressant treatment increases neurogenesis in adult rat hippocampus. J Neurosci 20, 9104 (2000); A. A. Pieper et al., Discovery of a proneurogenic, neuroprotective chemical. Cell 142, 39 (2010)). […]

SMILES	concentration at 5 h ([1]; mouse, oral 1 mg/kg)	concentration at 5 h ([1]; mouse, oral 2.5 mg/kg)	concentration at 5 h ([1]; mouse, oral 5 mg/kg)	half-life ([1]; mouse, plasma, after IP delivery, read-out: plasma terminal half life (converted))	blood-brain barrier crossing ([1]; single IV, IP and oral gavage administrations)	oral bioavailability ([1]; single oral gavage administration)	hypothalamic neurogenesis (BrdU positive staining) [2]	AC3+ cells in the ventral DG after CSDS ([3]; 20 mg/kg/d i.p. in divided doses)	BrdU+ cells in the DG after CSDS ([3]; 20 mg/kg/d i.p. in divided doses, wild type and Ghsr-null mice)	BrdU or AC3 immunoreactivity in the DG ([3]; non-stressed control animals)
OC(CNc1ccccc1)Cn1c2ccc(Br)cc2c2cc(Br)ccc21 (stereo not shown) [Example 45 Compound]	213 nM and 101 ng/g	1.13 µM and 534 ng/g	1.35 µM and 640 ng/g	6.7 h	readily able to cross the blood-brain barrier	orally bioavailable				
OC(CNc1ccccc1)Cn1c2ccc(Br)cc2c2cc(Br)ccc21 (stereo not shown) [Example P7C3]							markedly enhances hypothalamic neurogenesis	blocked by P7C3 administration	preserved normal levels of neurogenesis throughout both dorsal and ventral regions of the DG	did not significantly augment BrdU or AC3 immunoreactivity
